Measurements reported in article PMC10952710 (2023).
Values belong to the molecule of their own block, whether it stands above or below them.

Columns and labels:
[1] = tested on: synthetic neomycin-sensing riboswitch, 2FA-labeled (RNA, riboswitch, 2-fluoroadenine at 16, 17 and 24) GGCUGCUUGUCCUUUAAUGGUCCAGCC; experiment: 19F NMR titration; settings: 303 K; saturating ligand; 215-1200 µM RNA, 1-1.5 equivalents ligand
[2] = tested on: synthetic neomycin-sensing riboswitch, 2FA-labeled (RNA, riboswitch, 2-fluoroadenine at 16, 17 and 24) GGCUGCUUGUCCUUUAAUGGUCCAGCC; experiment: ITC; settings: 200 mM NaCl, 10 mM MgCl2, 20 mM Na-cacodylate, 1 mM spermidine, pH 6.8, 37 °C, one-site model

- binding [1]: yes
SMILES: NC[C@@H]1O[C@H](O[C@H]2[C@@H](O)[C@H](O[C@@H]3[C@@H](O)[C@H](N)C[C@H](N)[C@H]3O[C@H]3O[C@H](CN)[C@@H](O)[C@H](O)[C@H]3N)O[C@@H]2CO)[C@H](N)[C@@H](O)[C@@H]1O

- KD ([2]; 30 µM RNA, 300 µM ligand): 5.7 ± 3.8 µM
SMILES: NC[C@@H]1O[C@H](O[C@H]2[C@@H](O)[C@H](O[C@@H]3[C@@H](O)[C@H](N)C[C@H](N)[C@H]3O[C@H]3O[C@H](CO)[C@@H](O)[C@H](O)[C@H]3N)O[C@@H]2CO)[C@H](N)[C@@H](O)[C@@H]1O

- KD ([2]; 10 µM RNA, 100 µM ligand): 0.356 ± 0.019 µM
SMILES: NC[C@H]1O[C@H](O[C@H]2[C@H](O[C@@H]3O[C@H](CO)[C@@H](O)[C@H]3O)[C@@H](O)[C@H](N)C[C@@H]2N)[C@H](N)[C@@H](O)[C@@H]1O
